Converted amounts (≈) assume the structure as drawn.
Columns and labels:
Assay in all cases: antibacterial activity, MIC by standard serial dilution method
Format in all cases: cell-based
[1] = tested on: Citrobacter freundii GN346/16
Source text: (§1) Antibacterial activity of Compounds Nos. 1, 3, 5, 7, 9, 11, 13, 15, 17, 19, 21, 23, 25, 27, 29, 31, 33, 35 and 37 indentified hereinbefore which are the particular examples of the new cephalosporin derivative of general formula (I) according to this invention and which are in the form of the free carboxylic acid was estimated by determining the minimum inhibitory concentrations (MIC., μg/ml) of these compounds against a variety of bacteria according to a standard serial dilution method.

[2] = tested on: Citrobacter freundii GN346
Source text: as §1

[3] = tested on: Enterobacter cloacae G-0008; details: G0008
Source text: as §1

[4] = tested on: Enterobacter cloacae GN7471
Source text: as §1

[5] = tested on: Enterobacter hirae ATCC8043
Source text: as §1

[6] = tested on: Entrobacter faecalis W-73
Source text: as §1

Escherichia coli 255/S-1 = details: 255/S1
Source text: as §1

Escherichia coli 255 = tested on: Escherichia coli 255
Source text: as §1

Escherichia coli GN206 = tested on: Escherichia coli GN206
Source text: as §1

[7] = tested on: Escherichia coli NIHJ JC-2; details: NIHJJC2
Source text: as §1

[8] = tested on: Escherichia coli W3630 RGN823; details: W3630RGN823
Source text: as §1

[9] = tested on: Klebsiella pneumoniae GN69
Source text: as §1

[10] = tested on: Klebsiella pneumoniae PCI602
Source text: as §1

[11] = tested on: Marganella morganii 1510/S-1
Source text: as §1

Marganella morganii 1510 = tested on: Marganella morganii 1510
Source text: as §1

[12] = tested on: Proteus vulgaris GN76/C-1
Source text: as §1

Proteus vulgaris GN76 = tested on: Proteus vulgaris GN76
Source text: as §1

[13] = tested on: Pseudomonas aeruginosa GN10362
Source text: as §1

[14] = tested on: Serratia marcescens GN10857
Source text: as §1

[15] = tested on: Serratia marcescens No. 1
Source text: as §1

[16] = tested on: Staphylococcus aureus 209P JC-1
Source text: as §1

[17] = tested on: Staphylococcus epidermidis ATCC14990
Source text: as §1

SMILES	MIC [1]	MIC [2]	MIC [3]	MIC [4]	MIC [5]	MIC [6]	MIC (Escherichia coli 255/S-1)	MIC (Escherichia coli 255)	MIC (Escherichia coli GN206)	MIC [7]	MIC [8]	MIC [9]	MIC [10]	MIC [11]	MIC (Marganella morganii 1510)	MIC [12]	MIC (Proteus vulgaris GN76)	MIC [13]	MIC [14]	MIC [15]	other results
Nc1nc(/C(=N/O)C(=O)NC2C(=O)N3C(C(=O)O)=C(SC4CCOCC4)CS[C@H]23)cs1 (stereo partly shown) [Compound No. 15, 7-[(Z)-2-(2-aminothiazol-4-yl) -2-hydroxyiminoacetamido]-3-(tetrahydropyran-4-yl)thio-3-cephem-4-carboxylic acid]	6.25 µg/mL (≈ 12.9 µM)	> 100 µg/mL	1.56 µg/mL (≈ 3.21 µM)	100 µg/mL (≈ 206 µM)	6.25 µg/mL (≈ 12.9 µM)	1.56 µg/mL (≈ 3.21 µM)	0.39 µg/mL (≈ 0.803 µM)	50 µg/mL (≈ 103 µM)	12.5 µg/mL (≈ 25.7 µM)	0.78 µg/mL (≈ 1.61 µM)	12.5 µg/mL (≈ 25.7 µM)	0.78 µg/mL (≈ 1.61 µM)	0.39 µg/mL (≈ 0.803 µM)	0.2 µg/mL (≈ 0.412 µM)	50 µg/mL (≈ 103 µM)	6.25 µg/mL (≈ 12.9 µM)	1.56 µg/mL (≈ 3.21 µM)	> 100 µg/mL	> 100 µg/mL	6.25 µg/mL (≈ 12.9 µM)	MIC [16]: 0.2 µg/mL (≈ 0.412 µM); MIC [17]: 0.2 µg/mL (≈ 0.412 µM)
CC1(C)OCCC(CSC2=C(C(=O)O)N3C(=O)C(NC(=O)/C(=N\O)c4csc(N)n4)[C@H]3SC2)O1 (stereo partly shown) [Compound No. 17, 7 - [(Z)-2-(2-aminothiazol-4-yl) -2-hydroxyiminoacetamido]-3-(2,2-dimethyl-1,3-dioxan-4-yl)methylthio-3-cephem-4-carboxylic acid]	12.5 µg/mL (≈ 23.6 µM)	> 100 µg/mL	12.5 µg/mL (≈ 23.6 µM)	> 100 µg/mL	25 µg/mL (≈ 47.2 µM)	6.25 µg/mL (≈ 11.8 µM)	6.25 µg/mL (≈ 11.8 µM)	100 µg/mL (≈ 189 µM)	25 µg/mL (≈ 47.2 µM)	6.25 µg/mL (≈ 11.8 µM)	6.25 µg/mL (≈ 11.8 µM)	3.13 µg/mL (≈ 5.91 µM)	6.25 µg/mL (≈ 11.8 µM)	3.13 µg/mL (≈ 5.91 µM)	> 100 µg/mL	25 µg/mL (≈ 47.2 µM)	3.13 µg/mL (≈ 5.91 µM)	> 100 µg/mL	> 100 µg/mL	12.5 µg/mL (≈ 23.6 µM)	MIC [16]: 0.78 µg/mL (≈ 1.47 µM); MIC [17]: 0.39 µg/mL (≈ 0.736 µM)
CO/N=C(\C(=O)NC1C(=O)N2C(C(=O)O)=C(SC3COCOC3)CSC12)c1csc(N)n1 (stereo not shown) [Compound No. 19]	3.13 µg/mL (≈ 6.24 µM)	> 100 µg/mL	0.39 µg/mL (≈ 0.778 µM)	50 µg/mL (≈ 99.7 µM)	25 µg/mL (≈ 49.8 µM)	100 µg/mL (≈ 199 µM)	0.39 µg/mL (≈ 0.778 µM)	25 µg/mL (≈ 49.8 µM)	3.13 µg/mL (≈ 6.24 µM)	0.39 µg/mL (≈ 0.778 µM)	0.78 µg/mL (≈ 1.56 µM)	0.2 µg/mL (≈ 0.399 µM)	< 0.025 µg/mL	0.1 µg/mL (≈ 0.199 µM)	12.5 µg/mL (≈ 24.9 µM)	1.56 µg/mL (≈ 3.11 µM)	0.05 µg/mL (≈ 0.0997 µM)	> 100 µg/mL	50 µg/mL (≈ 99.7 µM)	0.78 µg/mL (≈ 1.56 µM)	MIC [16]: 0.39 µg/mL (≈ 0.778 µM); MIC [17]: 0.78 µg/mL (≈ 1.56 µM)
Nc1nc(/C(=N/O)C(=O)NC2C(=O)N3C(C(=O)O)=C(SC4COCOC4)CS[C@H]23)cs1 (stereo partly shown) [Compound No. 21, 7 - [(Z) -2-(2-aminothiazol-4-yl) -2-hydroxyiminoacetamido]-3-(1,3-dioxan-5-yl)thio-3-cephem-4-carboxylic acid]	3.13 µg/mL (≈ 6.42 µM)	> 100 µg/mL	0.78 µg/mL (≈ 1.6 µM)	50 µg/mL (≈ 103 µM)	3.13 µg/mL (≈ 6.42 µM)	12.5 µg/mL (≈ 25.6 µM)	0.2 µg/mL (≈ 0.41 µM)	25 µg/mL (≈ 51.3 µM)	6.25 µg/mL (≈ 12.8 µM)	0.2 µg/mL (≈ 0.41 µM)	3.13 µg/mL (≈ 6.42 µM)	0.2 µg/mL (≈ 0.41 µM)	0.2 µg/mL (≈ 0.41 µM)	0.1 µg/mL (≈ 0.205 µM)	12.5 µg/mL (≈ 25.6 µM)	12.5 µg/mL (≈ 25.6 µM)	0.78 µg/mL (≈ 1.6 µM)	> 100 µg/mL	> 100 µg/mL	3.13 µg/mL (≈ 6.42 µM)	MIC [16]: 0.2 µg/mL (≈ 0.41 µM); MIC [17]: 0.2 µg/mL (≈ 0.41 µM)
CO/N=C(\C(=O)NC1C(=O)N2C(C(=O)O)=C(SCC3CCCCO3)CS[C@H]12)c1csc(N)n1 (stereo partly shown) [Compound No. 23, 7-[(Z)-2-(2-aminothiazol-4-yl)-2-methoxyiminoacetamido]-3-(tetrahydropyran-2-yl)methylthio-3-cephem-4-carboxylic acid]	6.25 µg/mL (≈ 12.2 µM)	> 100 µg/mL	3.13 µg/mL (≈ 6.09 µM)	100 µg/mL (≈ 195 µM)	25 µg/mL (≈ 48.7 µM)	> 100 µg/mL	3.13 µg/mL (≈ 6.09 µM)	50 µg/mL (≈ 97.3 µM)	6.25 µg/mL (≈ 12.2 µM)	3.13 µg/mL (≈ 6.09 µM)	3.13 µg/mL (≈ 6.09 µM)	1.56 µg/mL (≈ 3.04 µM)	3.13 µg/mL (≈ 6.09 µM)	0.78 µg/mL (≈ 1.52 µM)	50 µg/mL (≈ 97.3 µM)	1.56 µg/mL (≈ 3.04 µM)	0.39 µg/mL (≈ 0.759 µM)	100 µg/mL (≈ 195 µM)	50 µg/mL (≈ 97.3 µM)	1.56 µg/mL (≈ 3.04 µM)	MIC [16]: 3.13 µg/mL (≈ 6.09 µM); MIC [17]: 3.13 µg/mL (≈ 6.09 µM)
Nc1nc(/C(=N/O)C(=O)NC2C(=O)N3C(C(=O)O)=C(SCC4CCCCO4)CS[C@H]23)cs1 (stereo partly shown) [Compound No. 25, 7-[(Z)-2-(2-aminothiazol-4-yl)-2-hydroxyiminoacetamido]-3-(tetrahydropyran-2-yl)methylthio-3-cephem-4-carboxylic acid]	12.5 µg/mL (≈ 25 µM)	> 100 µg/mL	25 µg/mL (≈ 50 µM)	100 µg/mL (≈ 200 µM)	12.5 µg/mL (≈ 25 µM)	12.5 µg/mL (≈ 25 µM)	12.5 µg/mL (≈ 25 µM)	100 µg/mL (≈ 200 µM)	12.5 µg/mL (≈ 25 µM)	12.5 µg/mL (≈ 25 µM)	12.5 µg/mL (≈ 25 µM)	12.5 µg/mL (≈ 25 µM)	12.5 µg/mL (≈ 25 µM)	0.78 µg/mL (≈ 1.56 µM)	100 µg/mL (≈ 200 µM)	12.5 µg/mL (≈ 25 µM)	3.13 µg/mL (≈ 6.27 µM)	> 100 µg/mL	> 100 µg/mL	6.25 µg/mL (≈ 12.5 µM)	MIC [16]: 1.56 µg/mL (≈ 3.12 µM); MIC [17]: 1.56 µg/mL (≈ 3.12 µM)
CO/N=C(\C(=O)NC1C(=O)N2C(C(=O)O)=C(SCC3CCOC3)CS[C@H]12)c1csc(N)n1 (stereo partly shown) [Compound No. 27, 7-[(Z)-2-(2-aminothiazol-4-yl)-2-methoxyiminoacetamido]-3-(tetrahydrofuran-3-yl)methylthio-3-cephem-4-carboxylic acid]	3.13 µg/mL (≈ 6.27 µM)	> 100 µg/mL	0.78 µg/mL (≈ 1.56 µM)	50 µg/mL (≈ 100 µM)	> 100 µg/mL	100 µg/mL (≈ 200 µM)	0.78 µg/mL (≈ 1.56 µM)	50 µg/mL (≈ 100 µM)	6.25 µg/mL (≈ 12.5 µM)	0.78 µg/mL (≈ 1.56 µM)	0.78 µg/mL (≈ 1.56 µM)	0.2 µg/mL (≈ 0.4 µM)	0.39 µg/mL (≈ 0.781 µM)	0.39 µg/mL (≈ 0.781 µM)	25 µg/mL (≈ 50 µM)	6.25 µg/mL (≈ 12.5 µM)	0.2 µg/mL (≈ 0.4 µM)	> 100 µg/mL	50 µg/mL (≈ 100 µM)	3.13 µg/mL (≈ 6.27 µM)	MIC [16]: 1.56 µg/mL (≈ 3.12 µM); MIC [17]: 0.78 µg/mL (≈ 1.56 µM)

— patent US5332731A, “Cephalosporin derivatives” (Meiji Seika Kaisha, Ltd., priority 1989, dated 1994)
